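Method: 48-hour compound exposure of cells in 96-well plates, five concentrations, linear interpolation of endpoints. Here, GI50 denotes the concentration required for 50% inhibition of growth. At the TGI there is no net growth.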
What was measured:
Assay in all cases: DTP human tumour cell line panel, 48 h
MCF7 breast = test system: MCF7 breast
RPMI-8226 leukemia = test system: RPMI-8226 leukemia
A549 NSCLC = test system: A549 NSCLC
786-0 renal = test system: 786-0 renal
EKVX NSCLC = test system: EKVX NSCLC
SNB-19 CNS = test system: SNB-19 CNS
NCI/ADR-RES ovarian = test system: NCI/ADR-RES ovarian
U251 CNS = test system: U251 CNS
SN12C renal = test system: SN12C renal
OVCAR-3 ovarian = test system: OVCAR-3 ovarian
SNB-75 CNS = test system: SNB-75 CNS
HT29 colon = test system: HT29 colon
DLD-1 colon = test system: DLD-1 colon
M14 melanoma = test system: M14 melanoma
DU-145 prostate = test system: DU-145 prostate
XF 498 CNS = test system: XF 498 CNS
OVCAR-4 ovarian = test system: OVCAR-4 ovarian
T-47D breast = test system: T-47D breast
LXFL 529 NSCLC = test system: LXFL 529 NSCLC
ACHN renal = test system: ACHN renal
MALME-3M melanoma = test system: MALME-3M melanoma
CAKI-1 renal = test system: CAKI-1 renal
SW-620 colon = test system: SW-620 colon
DMS 273 small cell lung = test system: DMS 273 small cell lung
UO-31 renal = test system: UO-31 renal
UACC-257 melanoma = test system: UACC-257 melanoma
PC-3 prostate = test system: PC-3 prostate
A498 renal = test system: A498 renal
SF-539 CNS = test system: SF-539 CNS
MDA-MB-435 = test system: MDA-MB-435
SK-OV-3 ovarian = test system: SK-OV-3 ovarian
BT-549 breast = test system: BT-549 breast
SK-MEL-2 melanoma = test system: SK-MEL-2 melanoma
NCI-H460 lung = test system: NCI-H460 lung
DMS 114 small cell lung = test system: DMS 114 small cell lung
HS 578T breast = test system: HS 578T breast
MOLT-4 leukemia = test system: MOLT-4 leukemia
CCRF-CEM leukemia = test system: CCRF-CEM leukemia
RXF-631 renal = test system: RXF-631 renal
KM20L2 colon = test system: KM20L2 colon
K-562 leukemia = test system: K-562 leukemia
SF-295 CNS = test system: SF-295 CNS
SF-268 CNS = test system: SF-268 CNS
UACC-62 melanoma = test system: UACC-62 melanoma
OVCAR-8 ovarian = test system: OVCAR-8 ovarian
HL-60(TB) leukemia = test system: HL-60(TB) leukemia
HCC-2998 colon = test system: HCC-2998 colon
COLO 205 colon = test system: COLO 205 colon
HCT-116 colon = test system: HCT-116 colon
LOX IMVI melanoma = test system: LOX IMVI melanoma
MDA-MB-231 breast = test system: MDA-MB-231 breast
SK-MEL-5 melanoma = test system: SK-MEL-5 melanoma
IGROV1 ovarian = test system: IGROV1 ovarian
HOP-62 NSCLC = test system: HOP-62 NSCLC
NCI-H522 lung = test system: NCI-H522 lung
SNB-78 CNS = test system: SNB-78 CNS
HCT-15 colon = test system: HCT-15 colon
HOP-92 NSCLC = test system: HOP-92 NSCLC
KM12 colon = test system: KM12 colon
HOP-18 NSCLC = test system: HOP-18 NSCLC
SR leukemia = test system: SR leukemia

For `Nc1[nH]c(=O)nc2c1cnn2Cc1ccccc1`, the GI50 (MCF7 breast) was over 100 µM, the TGI (MCF7 breast) was over 100 µM and the TGI (RPMI-8226 leukemia) was over 100 µM. The TGI (A549 NSCLC) was over 100 µM, the GI50 (786-0 renal) was over 100 µM and the TGI (786-0 renal) was over 100 µM. For the same compound, the TGI (EKVX NSCLC) was over 100 µM, the TGI (SNB-19 CNS) was over 100 µM and the GI50 (NCI/ADR-RES ovarian) was over 100 µM. The TGI (NCI/ADR-RES ovarian) was over 100 µM, the TGI (U251 CNS) was 2.73 µM and the TGI (SN12C renal) was over 100 µM. It also gave a GI50 (OVCAR-3 ovarian) of over 100 µM, a TGI (OVCAR-3 ovarian) of over 100 µM and a TGI (SNB-75 CNS) of over 100 µM. It also gave a TGI (HT29 colon) of over 100 µM, a TGI (DLD-1 colon) of over 100 µM and a TGI (M14 melanoma) of over 100 µM. The GI50 (DU-145 prostate) was over 100 µM, the TGI (DU-145 prostate) was over 100 µM and the TGI (XF 498 CNS) was over 100 µM. For the same compound, the TGI (OVCAR-4 ovarian) was over 100 µM, the GI50 (T-47D breast) was over 100 µM and the TGI (T-47D breast) was over 100 µM. It also gave a TGI (LXFL 529 NSCLC) of over 100 µM, a TGI (ACHN renal) of over 100 µM and a TGI (MALME-3M melanoma) of over 100 µM. It also gave a TGI (CAKI-1 renal) of over 100 µM, a TGI (SW-620 colon) of over 100 µM and a TGI (DMS 273 small cell lung) of over 100 µM. For the same compound, the TGI (UO-31 renal) was over 100 µM, the TGI (UACC-257 melanoma) was over 100 µM and the GI50 (PC-3 prostate) was over 100 µM. The TGI (PC-3 prostate) was over 100 µM, the TGI (A498 renal) was over 100 µM and the TGI (SF-539 CNS) was over 100 µM. It also gave a GI50 (MDA-MB-435) of over 100 µM, a TGI (MDA-MB-435) of over 100 µM and a GI50 (SK-OV-3 ovarian) of over 100 µM. The TGI (SK-OV-3 ovarian) was over 100 µM, the GI50 (BT-549 breast) was 36.2 µM and the TGI (BT-549 breast) was over 100 µM. It also gave a TGI (SK-MEL-2 melanoma) of over 100 µM, a TGI (NCI-H460 lung) of over 100 µM and a TGI (DMS 114 small cell lung) of over 100 µM. It also gave a GI50 (HS 578T breast) of over 100 µM, a TGI (HS 578T breast) of over 100 µM and a TGI (MOLT-4 leukemia) of over 100 µM. It also gave a TGI (CCRF-CEM leukemia) of over 100 µM, a TGI (RXF-631 renal) of over 100 µM and a TGI (KM20L2 colon) of 3.05 µM. It also gave a TGI (K-562 leukemia) of over 100 µM, a TGI (SF-295 CNS) of over 100 µM and a TGI (SF-268 CNS) of over 100 µM. It also gave a GI50 (UACC-62 melanoma) of over 100 µM, a TGI (UACC-62 melanoma) of over 100 µM and a TGI (OVCAR-8 ovarian) of over 100 µM. The TGI (HL-60(TB) leukemia) was over 100 µM, the GI50 (HCC-2998 colon) was over 100 µM and the TGI (HCC-2998 colon) was over 100 µM. It also gave a TGI (COLO 205 colon) of over 100 µM, a TGI (HCT-116 colon) of over 100 µM and a TGI (LOX IMVI melanoma) of over 100 µM. It also gave a GI50 (MDA-MB-231 breast) of over 100 µM, a TGI (MDA-MB-231 breast) of over 100 µM and a TGI (SK-MEL-5 melanoma) of over 100 µM. It also gave a TGI (IGROV1 ovarian) of over 100 µM, a GI50 (HOP-62 NSCLC) of over 100 µM and a TGI (HOP-62 NSCLC) of over 100 µM. The GI50 (NCI-H522 lung) was over 100 µM, the TGI (NCI-H522 lung) was over 100 µM and the TGI (SNB-78 CNS) was 3.08 µM. The TGI (HCT-15 colon) was over 100 µM, the TGI (HOP-92 NSCLC) was over 100 µM and the TGI (KM12 colon) was over 100 µM. For the same compound, the TGI (HOP-18 NSCLC) was over 100 µM and the TGI (SR leukemia) was over 100 µM.
